The record followed here is PubChem BioAssay AID192 (DTP/NCI, 2004).

The test system of the test is BDF1 mice, B16 melanoma ip, median survival T/C. In words: NCI In Vivo Anticancer Drug Screen. Data for tumor model B16 Melanoma (intraperitoneal) in B6D2F1 (BDF1) mice. To be noted: endpoint: median survival time, higher = longer survival. The gist of the method:
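Survival or tumor size is measured after treatment of tumor-bearing mice and normalised to the vehicle-treated control group.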

Where [1] appears, read: dose: 4.0 mg/kg/injection, schedule: Q01DX009 (ip), vehicle: saline.
[2] abbreviates: dose: 8.0 mg/kg/injection, schedule: Q01DX009 (ip), vehicle: saline.
Setting [3] is: dose: 25.0 mg/kg/injection, schedule: Q01DX009 (ip), vehicle: saline with Tween-80.
The mark [4] stands for this setting: dose: 50.0 mg/kg/injection, schedule: Q01DX009 (ip), vehicle: saline with Tween-80.
Where [5] appears, read: dose: 100.0 mg/kg/injection, schedule: Q01DX009 (ip), vehicle: saline with Tween-80.
Setting [6] is: dose: 200.0 mg/kg/injection, schedule: Q01DX009 (ip), vehicle: saline with Tween-80.
Setting [7] is: dose: 100.0 mg/kg/injection, schedule: Q04DX003 (ip), vehicle: Klucel (hydroxypropylcellulose) (HPC).
[8] abbreviates: dose: 200.0 mg/kg/injection, schedule: Q04DX003 (ip), vehicle: Klucel (hydroxypropylcellulose) (HPC).
Where [9] appears, read: dose: 400.0 mg/kg/injection, schedule: Q04DX003 (ip), vehicle: Klucel (hydroxypropylcellulose) (HPC).
Where [10] appears, read: dose: 50.0 mg/kg/injection, schedule: Q01DX009 (ip), vehicle: saline.
Setting [11] is: dose: 25.0 mg/kg/injection, schedule: Q01DX009 (ip), vehicle: Klucel (hydroxypropylcellulose) (HPC).
Where [12] appears, read: dose: 50.0 mg/kg/injection, schedule: Q01DX009 (ip), vehicle: Klucel (hydroxypropylcellulose) (HPC).
Setting [13] is: dose: 100.0 mg/kg/injection, schedule: Q01DX009 (ip), vehicle: Klucel (hydroxypropylcellulose) (HPC).
Setting [14] is: dose: 100.0 mg/kg/injection, schedule: Q01DX009 (ip), vehicle: saline.
Where [15] appears, read: dose: 200.0 mg/kg/injection, schedule: Q01DX009 (ip), vehicle: Klucel (hydroxypropylcellulose) (HPC).
Where [16] appears, read: dose: 400.0 mg/kg/injection, schedule: Q01DX009 (ip), vehicle: Klucel (hydroxypropylcellulose) (HPC).
Setting [17] is: dose: 6.25 mg/kg/injection, schedule: Q01DX009 (ip), vehicle: saline with Tween-80.
Setting [18] is: dose: 12.5 mg/kg/injection, schedule: Q01DX009 (ip), vehicle: saline with Tween-80.
Where [19] appears, read: dose: 400.0 mg/kg/injection, schedule: Q01DX009 (ip), vehicle: saline with Tween-80.

“And” between values parts separate entries of the source, which are not always exact repeats. Identical values can stand only once. Toxic doses and inconclusive results are not listed.

As to `Cn1c(CCCC(=O)O)nc2cc(N(CCCl)CCCl)ccc21`, the T/C by setting is: (dose: 1.0 mg/kg/injection, schedule: Q01DX009 (ip), vehicle: saline) 115 % of control; (dose: 2.0 mg/kg/injection, schedule: Q01DX009 (ip), vehicle: saline) 94 % of control; (dose: 2.5 mg/kg/injection, schedule: Q01DX009 (ip), vehicle: saline) 157 % of control; under setting [1], 103 % of control; (dose: 5.0 mg/kg/injection, schedule: Q01DX009 (ip), vehicle: saline) 152 % of control; (dose: 6.0 mg/kg/injection, schedule: Q01DX009 (ip), vehicle: saline) 101 % of control. The T/C runs as follows: under setting [2], 159 % of control; (dose: 10.0 mg/kg/injection, schedule: Q01DX009 (ip), vehicle: saline) 157 % of control and 186 % of control; (dose: 12.0 mg/kg/injection, schedule: Q01DX009 (ip), vehicle: saline) 115 % of control; (dose: 20.0 mg/kg/injection, schedule: Q01DX009 (ip), vehicle: saline) 89 % of control.

With `COC(=O)NC1CC=CCC1I` (configuration not stated), the T/C runs as follows: (dose: 12.5 mg/kg/injection, schedule: Q01DX009 (ip), vehicle: saline + alcohol) 109 % of control; (dose: 25.0 mg/kg/injection, schedule: Q01DX009 (ip), vehicle: saline + alcohol) 97 % of control; (dose: 50.0 mg/kg/injection, schedule: Q01DX009 (ip), vehicle: saline + alcohol) 88 % of control.

On to `O=c1[nH]c2ccc(Br)cc2c(=O)o1`, for which the T/C is, setting by setting: under setting [3], 91 % of control; under setting [4], 91 % of control; under setting [5], 86 % of control and 88 % of control; under setting [6], 86 % of control.

Regarding `CCC(=O)Oc1ccc(OCc2ccccc2)cc1`, the T/C under setting [7] is 95 % of control, the T/C under setting [8] is 86 % of control and the T/C under setting [9] was 97 % of control.

`CCC(C)C1NC(=O)C(NC(=O)c2c3nc4c(C(=O)NC5C(=O)NC(C(C)CC)C(=O)N6CCCC6C(=O)N(C)CC(=O)N(C)C(C(C)C)C(=O)OC5C)cc([N+](=O)[O-])c(C)c4oc-3c(C)c(=O)c2N)C(C)OC(=O)C(C(C)C)N(C)C(=O)CN(C)C(=O)C2CCCN2C1=O` (configuration not stated): the T/C is 110 % of control (dose: 25.0 micrograms/kg/injection, schedule: Q01DX009 (ip), vehicle: water); 119 % of control (dose: 50.0 micrograms/kg/injection, schedule: Q01DX009 (ip), vehicle: water); 124 % of control (dose: 100.0 micrograms/kg/injection, schedule: Q01DX009 (ip), vehicle: water); 160 % of control (dose: 400.0 micrograms/kg/injection, schedule: Q01DX009 (ip), vehicle: water).

For the compound `CCOC(=O)C(C#N)N=O` (configuration not stated), the T/C runs as follows: under setting [10], 111 % of control; (dose: 50.0 mg/kg/injection, schedule: Q04DX003 (ip), vehicle: saline) 106 % of control; (dose: 100.0 mg/kg/injection, schedule: Q04DX003 (ip), vehicle: saline) 113 % of control.

Turning to `O=C(O)c1ccc(OC(F)(F)C(F)Cl)cc1` (configuration not stated), the T/C under setting [11] was 106 % of control, the T/C under setting [12] was 100 % of control and the T/C under setting [13] is 106 % of control.

Regarding `COC(=O)C1C2CC(C3OC23)C1C(=O)OC` (configuration not stated), the T/C reads like this: under setting [7], 94 % of control; under setting [8], 100 % of control; under setting [9], 96 % of control.

Take `C/C=C\C#N`: the T/C is 107 % of control under setting [10] and 107 % of control under setting [14].

For `COc1ccc(C(CC(=O)c2ccc3c(c2)OCO3)C(=O)O)cc1OC` (configuration not stated), the T/C is 96 % of control under setting [13], 100 % of control under setting [15] and 100 % of control under setting [16].

For `N#CCCNC(Cc1ccc(O)cc1)C(=O)O` (configuration not stated), the T/C is, setting by setting: (dose: 12.5 mg/kg/injection, schedule: Q01DX009 (ip), vehicle: Klucel (hydroxypropylcellulose) (HPC)) 109 % of control; under setting [11], 100 % of control; under setting [12], 88 % of control; (dose: 56.25 mg/kg/injection, schedule: Q04DX003 (ip), vehicle: Klucel (hydroxypropylcellulose) (HPC)) 95 % of control; (dose: 75.0 mg/kg/injection, schedule: Q01DX009 (ip), vehicle: Klucel (hydroxypropylcellulose) (HPC)) 116 % of control; (dose: 112.5 mg/kg/injection, schedule: Q04DX003 (ip), vehicle: Klucel (hydroxypropylcellulose) (HPC)) 105 % of control.

For the compound `O=C(Nc1ccc(C2=NCCN2)cc1)c1ccc(C(=O)Nc2ccc(C3=NCCN3)cc2)c(Cl)c1`, the T/C is, setting by setting: (dose: 3.12 mg/kg/injection, schedule: Q01DX009 (ip), vehicle: saline with Tween-80) 93 % of control; under setting [17], 104 % of control; (dose: 8.0 mg/kg/injection, schedule: Q01DX009 (ip), vehicle: saline with Tween-80) 104 % of control; under setting [18], 108 % of control; (dose: 16.0 mg/kg/injection, schedule: Q01DX009 (ip), vehicle: saline with Tween-80) 102 % of control; under setting [3], 105 % of control.

For `C=C(Cl)CC1(C(=O)OCC)CCN(S(=O)(=O)c2ccc(C)cc2)c2ccccc2C1=O` (configuration not stated), the T/C is 97 % of control under setting [7], 107 % of control under setting [8] and 93 % of control under setting [9].

Regarding `CCCC1OC(/C=C/c2ccccc2)OCC1CC` (configuration not stated), the T/C under setting [5] was 110 % of control, the T/C under setting [6] was 110 % of control and the T/C under setting [19] is 98 % of control.

For the compound `CCCCCCCCCCCC[N+](C)(C)CCCCCCCCCCCC`, the T/C was 87 % of control under setting [1]; 88 % of control and 94 % of control under setting [2].

Take `C=CC12COC(=O)C(=C)C1C1OC(=O)C(=C)C1C(O)C2` (configuration not stated): the T/C runs as follows: (dose: 0.93 mg/kg/injection, schedule: Q01DX009 (ip), vehicle: Klucel (hydroxypropylcellulose) (HPC)) 95 % of control; (dose: 1.87 mg/kg/injection, schedule: Q01DX009 (ip), vehicle: Klucel (hydroxypropylcellulose) (HPC)) 104 % of control; (dose: 3.75 mg/kg/injection, schedule: Q01DX009 (ip), vehicle: Klucel (hydroxypropylcellulose) (HPC)) 101 % of control; (dose: 7.5 mg/kg/injection, schedule: Q01DX009 (ip), vehicle: Klucel (hydroxypropylcellulose) (HPC)) 98 % of control.

In the case of `Cc1cc2nc3[nH]c4ccccc4c3nc2cc1C`, the T/C by setting is: under setting [3], 97 % of control; under setting [4], 97 % of control; under setting [6], 86 % of control.

With `Nc1ccc(N2CCNCC2)cc1`, the T/C was 108 % of control under setting [10]; 97 % of control under setting [14]; 100 % of control (dose: 200.0 mg/kg/injection, schedule: Q01DX009 (ip), vehicle: saline).

Turning to `C/C=C/C(=O)OC(C)CCC(CC)CCCC` (configuration not stated), the T/C is, setting by setting: under setting [13], 90 % of control; under setting [15], 90 % of control; under setting [16], 90 % of control.

Consider `Nc1nc(SCc2ccccc2Cl)c2ncn(C3OC(CO)C(O)C3O)c2n1` (configuration not stated), for which the T/C under setting [12] was 89 % of control and the T/C under setting [4] was 88 % of control.

In the case of `CC1(C)c2ccccc2C(C)(C(Cl)(Cl)Cl)c2ccc(Cl)cc21` (configuration not stated), the T/C under setting [4] is 97 % of control, the T/C under setting [5] is 103 % of control, the T/C under setting [6] is 91 % of control and the T/C under setting [19] is 93 % of control.

In the case of `O=C(c1cccc(C(=O)n2c3c(c4ccccc42)CCCC3)c1)n1c2c(c3ccccc31)CCCC2`, the T/C under setting [17] is 94 % of control, the T/C under setting [18] was 102 % of control and the T/C under setting [3] is 100 % of control.

As for `c1ccc(-c2nc3ccc4ccccc4c3nc2-c2ccccc2)cc1`, the T/C by setting is: under setting [5], 100 % of control; under setting [6], 118 % of control; under setting [19], 95 % of control.

Regarding `COc1c(Br)c2c(c(OC)c1OC)-c1ccc(OC)c(=O)cc1C(NC(C)=O)CC2` (configuration not stated), the T/C runs as follows: (dose: 0.38 mg/kg/injection, schedule: Q01DX009 (ip), vehicle: Klucel (hydroxypropylcellulose) (HPC)) 113 % of control; (dose: 0.75 mg/kg/injection, schedule: Q01DX009 (ip), vehicle: Klucel (hydroxypropylcellulose) (HPC)) 115 % of control; (dose: 1.5 mg/kg/injection, schedule: Q01DX009 (ip), vehicle: Klucel (hydroxypropylcellulose) (HPC)) 112 % of control; (dose: 3.0 mg/kg/injection, schedule: Q01DX009 (ip), vehicle: Klucel (hydroxypropylcellulose) (HPC)) 118 % of control.
